79 compounds from the METLIN SMRT retention time set (Domingo-Almenara et al. 2019) can be followed below.

A short description of the data set: gradient 5% acetonitrile 3 min, to 50% in 2 min, to 85% in 15 min, held 3 min, 100 µL/min. The conditions noted are these: column: Zorbax Extend-C18 2.1 x 50 mm; eluents: water / acetonitrile, 0.1% formic acid. The essentials: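 Retention times of pure standards were taken from adduct peaks that were selected by computer and manually inspected. Over 3 months, mixtures of ~100 molecules were run by HPLC–quadrupole time-of-flight mass spectrometry in positive and negative ionization mode. The Zorbax Extend-C18 column (2.1 × 50 mm, 1.8 μm) ran at 100 μL/min in water and acetonitrile, each containing 0.1% formic acid, with 40 μL dead volume and 900 μL dwell volume.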
For the compound `CCN(CC)S(=O)(=O)c1cccc(-c2nnc(-c3ccc(OC)cc3)o2)c1`, the RP-LC retention time came out at 1020 s.
The compound `CCOC(=O)C1=C(C)NC2=C(C(=O)C(C(=O)OC)C(C)C2)C1c1ccc(N(C)C)cc1` (centres undefined) yielded an RP-LC retention time of 631 s.
On to `CCOc1ccc(-c2noc(CN3C(=O)COc4cc(Cl)ccc43)n2)cc1OC`, for which the RP-LC retention time amounted to 1080 s.
With `COc1ccc(CCNC(=O)CSc2ncnc3c2nnn3C)cc1OC`, the RP-LC retention time worked out at 628 s.
`CCSc1ccc(Cc2nnc(NC(=O)c3cccs3)o2)cc1` registered an RP-LC retention time of 807 s.
Turning to `O=C(CCCn1nnc2ccccc2c1=O)Nc1ccccc1Cl`, the RP-LC retention time worked out at 770 s.
Consider `O=C(NCc1cccnc1)C1CC(=O)N(CCc2c[nH]c3ccc(Cl)cc23)C1` (centres undefined), for which the RP-LC retention time worked out at 613 s.
For the compound `O=C(c1nc(-c2cccs2)cs1)N1CCCC1`, the RP-LC retention time is 935 s.
As to `OC[C@@H]1CNC[C@H]1C1CCN(Cc2ccc(OC(F)(F)F)cc2)CC1`, the RP-LC retention time stood at 591 s.
The compound `CCNc1nc(Nc2cc(F)c(C(=O)N3CCOCC3)cc2OC)ncc1C(F)(F)F` gave an RP-LC retention time of 915 s.
On to `O=C(Cn1nc(-c2ccccc2)c2cc(Cl)ccc21)N1CCN(c2ccccn2)CC1`, for which the RP-LC retention time is 757 s.
The result for `CC(C)c1ccc(NC(=O)C2CCN(C(=O)C3Sc4ccccc4NC3=O)CC2)cc1` (centres undefined) reads 872 s; that for `COc1ccc2sc(OC3CCN(C(=O)NC(C)C)CC3)nc2c1`, 819 s; that for `CC(=O)Nc1ccc(OC[C@](C)(O)C(=O)Nc2ccc([N+](=O)[O-])c(C(F)(F)F)c2)cc1`, 858 s.
Under `Cc1ccccc1CNC(=O)C1(C)Oc2cccnc2N(C(C)C)C1=O` (centres undefined) stands 978 s.
As to `CCOC(=O)c1sc(NC(=O)COc2ccc(Cl)cc2)nc1C`, the RP-LC retention time turned out to be 970 s.
`CCn1c(=O)c(C(=O)NCc2cccc(OC)c2)nc2cccnc21` displayed an RP-LC retention time of 780 s.
Compound `CN(C)C(=O)CN1C(=O)COc2ccc(C(=O)N3CCN(c4ccc(F)cc4)CC3)cc21` came in with an RP-LC retention time of 715 s.
As to `Cc1ccn2c(Nc3ccccc3C)c(-c3ccc(N4CCOCC4)cc3)nc2c1`, the RP-LC retention time was determined as 746 s.
`Cc1cc(OCC(=O)Nc2ccc(C#N)cc2)nc(N2CCN(c3ccccc3)CC2)n1`: the RP-LC retention time worked out at 802 s.
`Cc1[nH]c(C(=O)N2CCCC(C(=O)NCc3ccc(Cl)cc3)C2)c(C)c1C(=O)OC(C)C` (centres undefined): the RP-LC retention time was found to be 610 s.
`CCC(C(=O)NC(C)C)n1nc(C)c2nn(-c3ccccc3)c(C)c2c1=O` (centres undefined) returned an RP-LC retention time of 831 s.
The result for `CC(C)N1CCN(C(=O)c2n[nH]c3c2CCCC3)CC1` reads 558 s; that for `Cc1cccc(NC(=O)CSc2cc(N3CCN(c4ccccc4F)CC3)ncn2)c1`, 1110 s; that for `O=C(Nc1ccccc1C(F)(F)F)N1CCC(n2cnc3cccnc32)CC1`, 657 s.
`C=CCn1c(=O)c2ccccc2n(Cc2nc(-c3cc(OC)c(OC)c(OC)c3)no2)c1=O` gave an RP-LC retention time of 948 s.
Compound `C=CCN(CC=C)S(=O)(=O)c1ccc(C(=O)N2CCc3ccccc3C2)cc1` displayed an RP-LC retention time of 940 s.
Take `CC(C)c1ccc(-c2ccnc3c(C(=O)N4CCN(c5ccccn5)CC4)cnn23)cc1`: the RP-LC retention time is 710 s.
Compound `CCN1C(=O)c2cccnc2Sc2cc(NC(=O)COc3ccccc3C)ccc21` had an RP-LC retention time of 860 s.
`O=C(CS(=O)(=O)Cc1ccccc1)Nc1nc(-c2ccccn2)cs1` yielded an RP-LC retention time of 614 s.
As to `O=C(NCc1ccccc1)C1=C2CCCN2c2ccccc2S1(=O)=O`, the RP-LC retention time is 810 s.
Regarding `Cc1cc(C)cc(Nc2nc(C)cc(=O)n2CC(=O)Nc2cccc(Br)c2)c1`, the RP-LC retention time was determined as 934 s.
The result for `CC(=O)Nc1cc2c(cc1Sc1ccccc1Cl)n(C)c(=O)n2C` reads 781 s; that for `CC1(C(=O)NCc2ccc(F)cc2)CCCN(C(=O)NCc2ccccc2)C1` (centres undefined), 829 s.
Under `O=C(Cc1ccc(F)cc1)Nc1ccc(-c2cn3c(C(=O)N4CCCC4)csc3n2)cc1` stands 783 s; under `O=C(Cc1ccc(F)cc1)N1CCC2(CC1)N=C(c1ccc(Cl)cc1)NO2`, 889 s.
With `O=C(Nc1cc2c3c(c1)CCC(=O)N3CCC2)C(=O)Nc1ccc2c(c1)OCO2`, the RP-LC retention time amounted to 747 s.
Compound `Cc1cc(=O)oc2cc(OS(C)(=O)=O)ccc12` registered an RP-LC retention time of 782 s.
`O=C(NCC1CC(=O)N(c2ccc3c(c2)OCO3)C1)Nc1ccccc1C(F)(F)F` (centres undefined) yielded an RP-LC retention time of 717 s.
Consider `Cc1cc(N2CCC(NC(=O)Nc3cccc(Cl)c3F)C2=O)ccc1F` (centres undefined), for which the RP-LC retention time was determined as 945 s.
Under `CN1CCN(CCCNC(=O)CCCn2c(=O)c3cccn3c3ccc(F)cc32)CC1` stands 582 s.
For `COc1cccc(CNC(=O)C2CCN(S(=O)(=O)c3ccc4c(c3)CCCC(=O)N4)CC2)c1`, the RP-LC retention time came out at 713 s.
In the case of `O=C(NCC1Cn2cccc2C(=O)N1Cc1ccccc1)NC1CCCC1` (centres undefined), the RP-LC retention time came to 734 s.
Under `CS(=O)(=O)c1ccccc1NC(=O)C1CCCCN1S(=O)(=O)c1cccs1` (centres undefined) stands 837 s; under `CCOC(=O)C1CCN(c2ncccc2-c2nnc(-c3ccc(C)cc3)o2)CC1`, 1140 s; under `Cc1ccc2nc(C(=O)NCc3ccc4c(c3)OCO4)cn2c1`, 628 s.
Turning to `COc1cc(CCC(=O)N2CC(c3noc(C4CCCN4C)n3)C2)on1` (centres undefined), the RP-LC retention time was 570 s.
`COc1ccc2c(c1OC)C(=O)N1N=C(c3ccc(-c4ccccc4)cc3)CC21` (centres undefined) registered an RP-LC retention time of 927 s.
On to `O=c1c2cc(-c3cccs3)nn2cnn1Cc1nc(-c2ccccc2)no1`, for which the RP-LC retention time was determined as 1050 s.
`CN(C)c1ncccc1NC(=O)Nc1ccccc1F` came in with an RP-LC retention time of 601 s.
Under `Cc1cccc(NC(=O)c2cc(C(C)(C)C)n3nccc3n2)c1` stands 1240 s.
In turn, `O=C(C1CCCN(c2nnc3ccc(C(F)(F)F)cn23)C1)N1CCCCC1` (centres undefined) came in with an RP-LC retention time of 670 s.
Under `CCC(C)NC(=O)c1cnn(-c2ccc(-c3nc(C(C)C)no3)cn2)c1C` (centres undefined) stands 1000 s; under `O=C(Nc1cccc(-c2cn3cccnc3n2)c1)c1cccc([N+](=O)[O-])c1`, 687 s; under `Cc1noc(C)c1-c1ccc(S(=O)(=O)N2CCC(C)CC2)cc1`, 1020 s.
The result for `CCCNC(=O)NCCC1CCN(S(=O)(=O)c2ccccc2)CC1` reads 753 s.
Under `O=C(NC1CCCCCC1)C1CCN(S(=O)(=O)c2cc(C(=O)N3CCCC3)cs2)CC1` stands 820 s; under `CCOc1ccc(C(C)NC(=O)c2cc(NC(C)=O)cc3nc(C)ccc23)cc1` (centres undefined), 649 s.
`Cc1ccc(Nc2c(-c3ccc(Cl)cc3)nc3ccc(Cl)cn23)cc1` yielded an RP-LC retention time of 1060 s.
Regarding `O=C(Cc1nc(-c2ccccc2)n[nH]1)Nc1ccc(F)c(F)c1`, the RP-LC retention time was 757 s.
For `O=C1NC2(CCN(C(=O)c3ccc(F)c(F)c3)CC2)Nc2c(Cl)cccc21`, the RP-LC retention time came out at 777 s.
Take `O=C1C(=O)N(Cc2ccc(C(=O)N3CCOCC3)cc2)CCN1Cc1ccc(F)cc1`: the RP-LC retention time is 652 s.
With `CCOC(=O)C1CCN(C(=O)C2c3cc(OC)c(OC)cc3C(=O)N(C)C2c2cccs2)CC1` (centres undefined), the RP-LC retention time is 728 s.
For the compound `CC1=C(c2ccc(F)cc2)S(=O)(=O)N=C1N1CCCN(C(=O)C2CC2)CC1`, the RP-LC retention time was 734 s.
The result for `O=C(Cc1ccsc1)N1CCC(Nc2ncnc3c2CCC3)CC1` reads 673 s; that for `Cc1ccc(NC(=O)Nc2ccc(NC(=O)N3CCCC(C(=O)NC(C)C)C3)cc2)cc1` (centres undefined), 760 s.
Take `CN(C)c1nc2cc(C(=O)NC3CCCC3)sc2n1-c1ccc(F)cc1`: the RP-LC retention time is 1050 s.
For the compound `CC(C)CN1CCCCc2cc(C(=O)NC(C)(C)C)sc21`, the RP-LC retention time came out at 1270 s.
Turning to `Cc1sc2ncn(CC(=O)NCCCC(=O)N3CCCC(C)C3)c(=O)c2c1C` (centres undefined), the RP-LC retention time came out at 721 s.
The compound `CCn1nccc1C(=O)N1CCCN(C2=NS(=O)(=O)C(c3ccccc3)=C2C)CC1` had an RP-LC retention time of 714 s.
Regarding `Cc1ccc(/C=C/c2nc(-c3ccc4c(c3)oc(=O)n4C)no2)cc1`, the RP-LC retention time came out at 1110 s.
In the case of `CCOc1ccc2nc(NC(=O)C3CCCN(c4ncnc5c4nc4n5CCCCC4)C3)sc2c1` (centres undefined), the RP-LC retention time was found to be 1000 s.
With `Cc1ccc(S(=O)(=O)Nc2ccc3c(c2)CCC(=O)N3CC(C)C)cc1Cl`, the RP-LC retention time came out at 994 s.
`O=C(C1CCCCC1)N1CCCC1c1nc2ccccc2s1` (centres undefined) gave an RP-LC retention time of 966 s.
`CC(C)Cn1cc(S(=O)(=O)NCc2cccc(F)c2)c2cccnc21` had an RP-LC retention time of 953 s.
`CN(C)CCSc1ncccc1C(=O)NCc1cccs1` came in with an RP-LC retention time of 583 s.
For the compound `COc1cccc(C2CC(c3ccc(F)cc3)=NC3(CCN(C)CC3)N2)c1O` (centres undefined), the RP-LC retention time was found to be 590 s.
The result for `Cc1nc(OCC(=O)NCc2ccc(N(C)C)cc2)c2c(C)c(C)oc2n1` reads 653 s.
The compound `CCOc1ccccc1NC(=O)NCCc1nc2cccnc2n1C1CCCC1` displayed an RP-LC retention time of 782 s.
